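Following 48 hours of exposure in 96-well plates, responses at five concentrations were used to interpolate endpoints linearly. GI50 marks 50% less growth.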 Active and inactive are the calls of the source. No stated cut-off is given here; in the data, active = GI50 up to about 1.1 µM and inactive = higher.
Tests used:
Experiment in all cases: NCI anticancer screen, dose series, 48 h
HCT-116 = tested on: HCT-116
T47D = tested on: T47D
MDA-MB-231 = tested on: MDA-MB-231
KM12 = tested on: KM12
OVCAR-5 = tested on: OVCAR-5
DU-145 = tested on: DU-145
HOP-92 = tested on: HOP-92
M14 = tested on: M14
SF-268 = tested on: SF-268
OVCAR-8 = tested on: OVCAR-8
UACC-62 = tested on: UACC-62
LOX IMVI = tested on: LOX IMVI
SW-620 = tested on: SW-620
NCI/ADR-RES = tested on: NCI/ADR-RES
MDA-MB-435 = tested on: MDA-MB-435
NCI-H460 = tested on: NCI-H460
A549 = tested on: A549
SK-MEL-28 = tested on: SK-MEL-28
SF-295 = tested on: SF-295
UO-31 = tested on: UO-31

SMILES	GI50 (HCT-116)	GI50 (T47D)	GI50 (MDA-MB-231)	GI50 (KM12)	GI50 (OVCAR-5)	GI50 (DU-145)	GI50 (HOP-92)	GI50 (M14)	GI50 (SF-268)	GI50 (OVCAR-8)	GI50 (UACC-62)	GI50 (LOX IMVI)	GI50 (SW-620)	GI50 (NCI/ADR-RES)	GI50 (MDA-MB-435)	GI50 (NCI-H460)	GI50 (A549)	GI50 (SK-MEL-28)	GI50 (SF-295)	GI50 (UO-31)
COC(=O)C(COC(=O)/C=C/c1ccc(OC(C)=O)c(OC(C)=O)c1)NC(=O)/C=C/c1ccc(OC(C)=O)c(OC(C)=O)c1 (configuration not stated)	19.2 µM (inactive)	16.6 µM (inactive)	14.9 µM (inactive)	17.6 µM (inactive)	38.7 µM (inactive)	20.8 µM (inactive)	32.7 µM (inactive)	17.6 µM (inactive)	> 10 µM (inactive)	30.4 µM (inactive)	15 µM (inactive)	16.3 µM (inactive)	33.4 µM (inactive)	45.8 µM (inactive)	28.3 µM (inactive)	21.3 µM (inactive)	40.9 µM (inactive)	26.2 µM (inactive)		
C/C=C/[C@H]1O[C@@](O)([C@@H](C)[C@H](O)[C@H](C)[C@H]2OC(=O)/C(OC)=C/C(C)=C/[C@@H](C)[C@@H](O)[C@@H](CC)[C@@H](O)[C@H](C)C/C(C)=C/C=C/[C@@H]2OC)C[C@H](OC2CC(O)C(OC(N)=O)C(C)O2)[C@@H]1C (some centres not stated)	0.017 µM (active)	0.0333 µM (active)	0.678 µM (active)	< 0.0163 µM (active)	11.9 µM (inactive)	0.914 µM (active)		< 0.0161 µM (active)	0.0447 µM (active)	0.0474 µM (active)	0.0231 µM (active)	< 0.01 µM (active)	< 0.022 µM (active)	0.759 µM (active)	0.0275 µM (active)	< 0.0111 µM (active)	< 0.0181 µM (active)	0.74 µM (active)	0.0248 µM (active)	0.0479 µM (active)
CCCCCCCCCCCCCCCCS(=O)(=O)c1ccc(NN)cc1	4.76 µM (inactive)	> 10 µM (inactive)	> 10 µM (inactive)	> 10 µM (inactive)	> 10 µM (inactive)	> 10 µM (inactive)	7.1 µM (inactive)	> 10 µM (inactive)	9.38 µM (inactive)	6.53 µM (inactive)	> 10 µM (inactive)	4.29 µM (inactive)	> 10 µM (inactive)	> 10 µM (inactive)	> 10 µM (inactive)	> 10 µM (inactive)	5.27 µM (inactive)	> 10 µM (inactive)	> 10 µM (inactive)	
COc1cc(/C=N\NC(=O)C[N+](C)(C)C)cc(OC)c1OC	> 10 µM (inactive)	> 10 µM (inactive)	> 10 µM (inactive)	> 10 µM (inactive)	> 10 µM (inactive)	> 10 µM (inactive)	> 10 µM (inactive)	> 10 µM (inactive)	> 10 µM (inactive)	> 10 µM (inactive)	> 10 µM (inactive)	> 10 µM (inactive)	> 10 µM (inactive)	> 10 µM (inactive)	> 10 µM (inactive)		> 10 µM (inactive)	> 10 µM (inactive)	> 10 µM (inactive)	
CC(C)(C)c1cc(COc2cc(COc3ccc(-c4c5c(nc6c4CCc4ccc(-c7c8ccccc8nc8ccccc78)cc4-6)-c4cc(-c6c7ccccc7nc7ccccc67)ccc4CC5)cc3)cc(OCc3cc(C(C)(C)C)cc(C(C)(C)C)c3)c2)cc(C(C)(C)C)c1	> 100 µM (inactive)	> 100 µM (inactive)	> 100 µM (inactive)	> 100 µM (inactive)	> 100 µM (inactive)	> 100 µM (inactive)	> 100 µM (inactive)	> 100 µM (inactive)	> 100 µM (inactive)		> 100 µM (inactive)			> 100 µM (inactive)	> 100 µM (inactive)	> 100 µM (inactive)	> 100 µM (inactive)	> 100 µM (inactive)	> 100 µM (inactive)	> 100 µM (inactive)
Clc1ccc2c(NCCNC3CCCCC3)ccnc2c1	5.96 µM (inactive)	4.2 µM (inactive)	9.62 µM (inactive)	6.28 µM (inactive)	14.9 µM (inactive)	16.1 µM (inactive)	5.56 µM (inactive)	1.77 µM (inactive)	9.64 µM (inactive)	10.7 µM (inactive)	4.28 µM (inactive)	2.67 µM (inactive)	12.2 µM (inactive)	11.4 µM (inactive)	3.04 µM (inactive)		13.6 µM (inactive)	1.86 µM (inactive)	3.34 µM (inactive)	2.95 µM (inactive)
CN(C)/C=N/CCN1CCOCC1	> 100 µM (inactive)	> 100 µM (inactive)	> 100 µM (inactive)		> 100 µM (inactive)	> 100 µM (inactive)	> 100 µM (inactive)	> 100 µM (inactive)	> 100 µM (inactive)	> 100 µM (inactive)	> 100 µM (inactive)	> 100 µM (inactive)		> 100 µM (inactive)	> 100 µM (inactive)		> 100 µM (inactive)	57.3 µM (inactive)	> 100 µM (inactive)	> 100 µM (inactive)

From ChEMBL document CHEMBL1201862, “PubChem BioAssay data set” (2004)
